Reference: patent EP0589069A1, “Hydroquinone derivatives and antioxidants and tumor inhibitors containing them” (NIPPON HYPOX LABORATORIES INCORPORATED, priority 1992, dated 1994)

Legend:
Salmonella TA 98 = test: Antimutagenic activity test on mutagenesis of heterocyclic amine to Salmonellae (preincubation Ames test with S9 mix); type: cell-based; settings: mutagen IQ 0.005 µg; test compound 20.0 µg
Protocol: Compounds of the present invention were tested on their antimutagenic activity to heterocyclic amines of Glu-P-1·HCl, Trp-P-1 acetate and IQ by a preincubation method-applied Ames test according to the method of Diane et al (Diane F. Birt, et al., Carcinogenesis, Vol. 7, No. 6, 959-963, 1986).
That is, S9 mix (0.5 ml), 0.1 ml of a Salmonella TA 98 medium, a compound of the present invention dissolved in DMSO and 0.1 ml of one of the above mutagens were charged into a test tube, and cultured at 37°C for 20 minutes with shaking. Then, 2 ml of soft agar was added to, and mixed with, the contents in the test tube. The resultant mixture was spread over a minimal glucose agar medium, and cultured at 37°C for 48 hours, and the number of reverse mutation colonies. Two or three plates were prepared each dosage, and the test results were compared with the test result of a negative control group to which DMSO alone was added and the test result of a positive control group to which the corresponding mutagen alone was added. […]

[1] = test system: lipid of rat liver microsome; test: Inhibition activity against hyperoxidation of lipid of rat liver microsome (thiobarbituric acid method); type: biochemical; settings: for Inhibition ratio of lipid peroxidation (%): rat liver microsome, NADPH/ADP/FeCl₃, 37°C; for antioxidant activity (result in words on Table 2): summary of Table 2
Protocol: [Inhibition activity against hyperoxidation of lipid of rat liver microsome]
A plurality of male SD rats (weighing […]) were prepared. Each rat was anesthetized with pentobarbital, and then subjected to celiotomy. A cannula was introduced into the portal vein of each rat, the abdominal large veins were sectioned, and 500 ml of cold 0.9 % NaCl was injected into the portal veins.
Livers were extracted from individual rats, and the livers were cut to pieces in 1.15 % KCl and homogenized with ice cooling. Then, 1.15 % KCl was further added to obtain a 30 % liver homogenized solution.
The above homogenized solution was centrifugally separated at 8,000 g (g: gravitation acceleration) for 10 minutes, and the resultant supernatant was recovered.
The so-prepared suspension was stored at -20°C before a test described in the following (2), and it was used within 1 week after the preparation.
As test compounds, the hydroquinone derivatives obtained in Preparation Examples 1 to 12, a known hydroquinone derivative which was a compound of the formula (I) in which R¹ was methyl (hereinafter referred to as HQ1) and BHT were respectively tested on their inhibition activities against hyperoxidation of lipid in the following manner.
First, 0.1 ml of the liver microsome suspension obtained in the above (1), 0.1 ml of NADPH (final concentration 2 mM), 0.1 ml of ADP (final concentration 10 mM) and 0.1 ml of a solution of one of the test compounds whose concentration was adjusted as shown in Table 2 with 10 % DMF were added to a tris-HCl buffer (167 mM KCl, 74 mM TRIS, pH 7.4), and the resultant mixture was warmed at 37°C for 5 minutes. Then, 0.1 ml of FeCl₃ (final concentration 0.1 mM) was added, and the mixture was warmed at 37°C for 20 minutes.
The resultant reaction mixture was cooled with ice. Then, 0.2 ml of 8.1 % SDS, 1.5 ml of an acetic acid buffer (prepared by adjusting 20 % acetic acid containing 0.27 mM HCl to pH 3.5 with 10N NaOH) and 1.5 ml of 0.8 % thiobarbituric acid were added to the cooled reaction mixture, and the resultant mixture was warmed over a boiling water bath for 20 minutes. After the warming, the reaction mixture was cooled with ice, and 4 ml of an n-BuOH/pyridine mixed solution [n-BuOH:pyridine = 15:1 (volume ratio)] was added to the cooled reaction mixture. The mixture was vigorously stirred.
The reaction mixture was centrifugally separated at 2,000 rpm for 10 minutes, and the resultant supernatant was measured for an absorbance at 532 nm to determine a thiobarbituric acid reaction amount. And, on the basis of a calibration curve of […] (MDA) amount prepared by using 1,1,3,3-tetramethoxypropane, a peroxidized lipid amount was determined as an amount of formed MDA.
In Control, the solution of the test compound in 10 % DMF was replaced with 0.1 ml of a 10 % DMF solution, and the above procedures were repeated to determine a peroxidized lipid amount. In Blank, each of 0.1 ml of NDAPH, 0.1 ml of ADP and 0.1 ml of FeCl₃ were replaced with 0.1 ml of water, the solution of the test compound in 10 % DMF was replaced with 0.1 ml of a 10 % DMF solution, and the above procedures were repeated to determine a peroxidized lipid amount.
The inhibition ratio of the lipid peroxidation reaction was calculated on the basis of the following equation. Inhibition ratio (%) =[1-(OD₁-OD₃)/(OD₂-OD₃)] x 100 [formula] OD₁: Absorbance when test compound is added. OD₂: Absorbance of Control OD₃: Absorbance of Blank

[2] = test compound concentration 10⁻⁶M
[3] = test compound concentration 10⁻⁵M

Substance	Mutagenesis inhibition ratio (Salmonella TA 98)	Inhibition ratio of lipid peroxidation (%) [1, 2] [%]	antioxidant activity (result in words on Table 2) [1]	Inhibition ratio of lipid peroxidation (%) [1, 3] [%]
1-butyl-2,3,5-trimethylhydroquinone [Preparation Example 3]	85	75.9		
1-decylhydroquinone [Preparation Example 2]		1.8	excellent antioxidant activity over the known hydroquinone derivative HQ1	79.5
1-octylhydroquinone [Preparation Example 1]		9.8	excellent antioxidant activity over the known hydroquinone derivative HQ1	99.7
4-hexyl-2,3,5-trimethylhydroquinone [Preparation Example 8]		40		98.3
